The record followed here is PubChem BioAssay (NCI).

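Each compound was tested at five concentrations against cells in 96-well plates for 48 hours. TGI: total growth inhibition.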

Assay in all cases: growth of human tumour cells (NCI), 48 h
Experiment [1] concerns SW-620 colon.
Experiment [2] deals with OVCAR-4 ovarian.
For experiment [3], the system named is UACC-62 melanoma.
In experiment [4] the test system is NCI-H23 lung.
Experiment [5] deals with PC-3 prostate.
Experiment [6] has as its system NCI-H460 lung.
Experiment [7] has as its system RXF 393 renal.
Experiment [8] deals with SK-MEL-28 melanoma.
Experiment [9] concerns MOLT-4 leukemia.
The test system of experiment [10] is HOP-62 NSCLC.
Experiment [11] has as its system A549 NSCLC.
In experiment [12] the test system is HL-60(TB) leukemia.

Consider `O=C(c1cccc(C(=O)c2ccc3c4c(cccc24)C(=O)N(c2ccccc2)C3=O)c1)c1ccc2c3c(cccc13)C(=O)N(c1ccccc1)C2=O`, for which the TGI in experiment [1], in [2], in experiment [3], in experiment [4], in experiment [5] and in [6] was > 100 µM each time. Moreover, the TGI in [7], in experiment [8], in experiment [9], in [10] and in experiment [11] was > 100 µM in each case.

In the case of `Cc1c(C)c2c(c(N)c1C#N)C(=O)N(CCN1CCNCC1)C2=O`, the TGI is > 100 µM in experiment [1]; > 100 µM in experiment [2]; 62.4 µM in experiment [3]; > 100 µM in experiment [5]; > 100 µM in experiment [6]; 70.6 µM in experiment [7]. Also, the TGI in [8], in [12], in experiment [9] and in [11] was > 100 µM each time.

In the case of `COc1ccc(/C=C2\N=C(NN)N=C2Cl)cc1`, the TGI in experiment [1], in experiment [2], in experiment [4], in experiment [5], in experiment [7] and in [8] was > 100 µM throughout. The TGI in experiment [12], in experiment [9], in experiment [10] and in experiment [11] was > 100 µM in each case.

Regarding `Cc1ccc(S(=O)(=O)Oc2nc3ccccc3nc2N(S(=O)(=O)c2ccc(C)cc2)S(=O)(=O)c2ccc(C)cc2)cc1`, the TGI in experiment [1], in experiment [3], in experiment [4], in experiment [5], in experiment [6] and in [7] was > 100 µM in each case. Also, the TGI in experiment [8], in experiment [12], in [9] and in [11] was > 100 µM throughout.

Turning to `COC(=O)c1ccccc1/C=C1\Cc2cc(C)c(C)cc2C1=O`, the TGI in experiment [1], in experiment [2], in experiment [3], in experiment [5], in [6] and in experiment [7] was > 100 µM in each case. Besides, the TGI was > 100 µM in experiment [8]; > 100 µM in experiment [12]; > 100 µM in experiment [9]; 85.8 µM in experiment [10]; > 100 µM in experiment [11].

For `O=C1NC(N2CCCC(CO)C2)=N/C1=C\c1ccc(Cl)cc1` (stereo not given), the TGI in experiment [1], in experiment [2], in experiment [3], in [4], in experiment [5] and in experiment [7] was > 100 µM each time. Besides, the TGI in experiment [8], in experiment [12], in [9], in [10] and in [11] was > 100 µM in each case.

Turning to `NNc1[nH]c(=S)[nH]c1C(N)=O`, the TGI in [1], in experiment [2], in [3], in experiment [5], in [6] and in experiment [7] was > 100 µM in each case. In addition, the TGI in experiment [8], in experiment [12], in [9], in experiment [10] and in experiment [11] was > 100 µM each time.

Turning to `CN(C)C(=O)Oc1ccc(-c2cn3cc(NC(=O)c4ccccc4)ccc3n2)cc1`, the TGI in experiment [1], in experiment [2], in experiment [3], in [4], in experiment [5] and in experiment [6] was > 100 µM throughout. The TGI in [7], in experiment [8], in experiment [9], in experiment [10] and in experiment [11] was > 100 µM throughout.

Turning to `COc1cc(/C=C/c2cc(/C=C/c3ccc(O)c(OC)c3)oc(=O)c2)ccc1O`, the TGI is > 24.5 µM in [1]; 13.6 µM in [2]; 18.5 µM in [3]; > 24.7 µM in [4]; 20.3 µM in experiment [5]; 7.63 µM in experiment [6]. Also, the TGI in experiment [7] is 1.08 µM; in experiment [8], > 100 µM; in experiment [9], > 26.2 µM; in experiment [10], 27.2 µM; in experiment [11], > 100 µM.

In the case of `CC(C)NCCC(O)c1cc2ccccc2o1` (stereo not given), the TGI in [1], in experiment [2], in experiment [3], in [4], in experiment [5] and in [6] was > 100 µM in each case. Besides, the TGI in experiment [7] is > 100 µM; in experiment [8], > 100 µM; in experiment [9], 49.2 µM; in experiment [10] it was > 100 µM; in experiment [11] it was > 100 µM.

`NC(=O)c1[nH]cnc1/N=N/SCC(N)C(=O)O` (stereo not given): the TGI in experiment [1], in [2], in experiment [3], in experiment [4], in experiment [5] and in experiment [6] was > 100 µM throughout. In addition, the TGI was > 100 µM in [7]; > 100 µM in experiment [8]; 6.66 µM in [12]; > 100 µM in [10]; > 100 µM in [11].

As to `CCc1c(Cc2cc(C)cc(C)c2)n2c(nc1=O)SCC2CBr` (stereo not given), the TGI in experiment [1], in [2], in [3], in experiment [4], in experiment [5] and in experiment [6] was > 50 µM throughout. Besides, the TGI in experiment [7], in [8], in experiment [12], in experiment [9] and in experiment [11] was > 50 µM each time.

Turning to `Clc1nc2n(c1/C=C/c1cccs1)CCS2`, the TGI in [1], in experiment [2], in [3], in [4], in experiment [5] and in experiment [7] was > 100 µM in each case. Also, the TGI was > 100 µM in [8]; > 100 µM in [12]; 35.2 µM in experiment [9]; > 100 µM in experiment [10]; > 100 µM in [11].
